Test results as given in patent US20260347364A1, “PYRAZOLO[4,3-F]QUINAZOLINE DERIVATIVES AS MODULATORS OF G12D MUTANT KRAS USEFUL FOR THE TREATMENT OF CANCER” (JAZZ PHARMACEUTICALS IRELAND LTD., priority 2023, published 2026).

Assays:
KRAS WT = target: T1, KRAS WT (Homo sapiens, UniProt P01116); assay: HTRF nucleotide exchange assay, KRAS WT; assay type: biochemical; settings: class symbols; for IC50: HTRF nucleotide exchange assay (NEA)
T1 construct: aa1-188 KRAS WT
Description: (§1) HTRF Nucleotide Exchange Assay Method
(§2) The capacity of compounds to bind KRAS G12D, other KRAS mutants and wildtype RAS isoforms was quantified using a HTRF nucleotide exchange assay. Recombinant human RAS protein (2 nM; aa1-188 KRAS WT, HRAS WT, NRAS WT, or KRAS containing the G12D, G13D or Q61H amino acid substitutions, or 4 nM KRAS; aa1-188 containing the G12V, G12C, G12A or G12S amino acid substitution, an N-terminal 6× His-tag and leader sequence), and 2 nM Europium-labeled anti-6× His antibody were mixed in assay buffer (10 mM HEPES pH 7.3, 150 mM NaCl, 5 mM MgCl2, 0.05% BSA, 0.0025% NP-40 and 100 mM KF) with various concentrations of compound in a 384-well plate and a volume of 5 μL. After a 60-minute incubation at room temperature, 5 μl of 200 nM EDA-GTP-DY647P1 (diluted in assay buffer) was added to the plate. Following 30-minute incubation at room temperature, time-resolved fluorescence was measured on a PerkinElmer Envision plate reader. DMSO (0.3%) and unlabeled GDP (1 μM) or equivalent tool compound were used to generate the Max and Min assay signals, respectively. Data was analysed using a four-parameter logistic model to calculate IC50 values, with at least two independent replicates were performed for each compound. The results are presented as IC50s in Table 29 where “A” corresponds to an IC50 ≤10 nM, “B” to an IC50 >10 nM up to 100 nM, “C” is >100 nM up to 10 μM, “D” represents <49% inhibition at 10 μM and ND=not determined: […]

KRAS G12D = target: T2, KRAS G12D (Homo sapiens, UniProt P01116, G12D); assay: HTRF nucleotide exchange assay, KRAS G12D; assay type: biochemical; settings: class symbols; for IC50: HTRF nucleotide exchange assay (NEA)
T2 construct: aa1-188 KRAS WT, HRAS WT, NRAS WT, or KRAS containing the G12D
Description: as §1, §2

Row | Compound | IC50 (KRAS WT) | IC50 (KRAS G12D) | KRAS^WT NEA (KRAS WT) | KRAS^G12D NEA (KRAS G12D)
1 | CCc1c(F)ccc2cc(O)cc(-c3cc4nc(O[C@@H](C)[C@@H]5CCCN5C)nc(N5CCCn6nc(C(=O)N(C)C)cc6C5)c4c4cn(C)nc34)c12 (racemic) [Example 54, 5-[4-(8-ethyl-7-fluoro-3-hydroxy-1-naphthyl)-2-methyl-7-[rac-(1S)-1-[rac-(2S)-1-methylpyrrolidin-2-yl]ethoxy]pyrazolo[4,3-f]quinazolin-9-yl]-N,N-dimethyl-4,6,7,8-tetrahydropyrazolo[1,5-a][1,4]diazepine-2-carboxamide] | 100 to 10000 nM | 100 to 10000 nM |  | 
2 | CN(C)C(=O)c1cc2n(n1)CCCN(c1nc(OC[C@@]34CCCN3C[C@H](F)C4)nc3cc(-c4cc(O)ccc4C(F)(F)F)c4nn(C)cc4c13)C2 (racemic) [Example 64, 5-[4-[5-hydroxy-2-(trifluoromethyl)phenyl]-2-methyl-7-[[rac-(2R,8S)-2-fluoro-1,2,3,5,6,7-hexahydropyrrolizin-8-yl]methoxy]pyrazolo[4,3-f]quinazolin-9-yl]-N,N-dimethyl-4,6,7,8-tetrahydropyrazolo[1,5-a][1,4]diazepine-2-carboxamide] | 100 to 10000 nM | 10 to 100 nM |  | 
3 | C#Cc1c(F)ccc2cc(O)cc(-c3cc4nc(OC[C@@]56CCCN5C[C@H](F)C6)nc(N5CCCNCC5)c4c4cn(C)nc34)c12 (single isomer, unassigned) [Example 35] |  | 100 to 10000 nM | D (<49% inhibition at 10 μM) | 
4 | Cn1cc2c(n1)c(-c1cccc3sc(N)c(C#N)c13)cc1nc(OC[C@@]34CCCN3C[C@H](F)C4)nc(N3CCCOCC3)c12 [Example 3, 2-amino-4-[2-methyl-9-(1,4-oxazepan-4-yl)-7-[[(2R,8S)-2-fluoro-1,2,3,5,6,7-hexahydropyrrolizin-8-yl]methoxy]pyrazolo[4,3-f]quinazolin-4-yl]benzothiophene-3-carbonitrile] | 100 to 10000 nM |  |  | D (<49% inhibition at 10 μM)
5 | Cn1cc2c(n1)c(-c1c(O)cccc1F)cc1nc(OC[C@@]34CCCN3C[C@H](F)C4)nc(N3CCCOCC3)c12 [Example 4, 3-fluoro-2-[2-methyl-9-(1,4-oxazepan-4-yl)-7-[[(2R,8S)-2-fluoro-1,2,3,5,6,7-hexahydropyrrolizin-8-yl]methoxy]pyrazolo[4,3-f]quinazolin-4-yl]phenol] |  |  | D (<49% inhibition at 10 μM) | D (<49% inhibition at 10 μM)
6 | Cn1cc2c(n1)c(-c1cc(O)ccc1F)cc1nc(OC[C@@]34CCCN3C[C@H](F)C4)nc(N3CCCOCC3)c12 [Example 5] |  | 100 to 10000 nM | D (<49% inhibition at 10 μM) | 
7 | CCc1c(F)ccc2cc(O)cc(-c3cc4nc(OC[C@@]56CCCN5C[C@H](F)C6)nc(N5CCCCC(C)(O)C5)c4c4cn(C)nc34)c12 (stereo partly drawn) [Example 10, 1-[4-(8-ethyl-7-fluoro-3-hydroxy-1-naphthyl)-2-methyl-7-[[(2R,8S)-2-fluoro-1,2,3,5,6,7-hexahydropyrrolizin-8-yl]methoxy]pyrazolo[4,3-f]quinazolin-9-yl]-3-methyl-azepan-3-ol] | ≤ 10 nM | ≤ 10 nM |  | 
8 | CCc1c(F)ccc2cc(O)cc(-c3c(F)c4nc(OCC5(CN6CC(O)C(F)(F)C6)CC5)nc(N5CCOCC(C)(O)C5)c4c4cn(C)nc34)c12 (centres unmarked) [Example 237, 4-[7-[[1-[(3,3-difluoro-4-hydroxy-pyrrolidin-1-yl)methyl]cyclopropyl]methoxy]-4-(8-ethyl-7-fluoro-3-hydroxy-1-naphthyl)-5-fluoro-2-methyl-pyrazolo[4,3-f]quinazolin-9-yl]-6-methyl-1,4-oxazepan-6-ol] |  | ≤ 10 nM |  | 
9 | CCc1c(F)ccc2cc(O)cc(-c3c(F)c4nc(OC[C@@H]5CCN5C)nc(N5CCC[C@@](C)(O)C5)c4c4cn(C)nc34)c12 [Example 239, (3R)-1-[4-(8-ethyl-7-fluoro-3-hydroxy-1-naphthyl)-5-fluoro-2-methyl-7-[[(2S)-1-methylazetidin-2-yl]methoxy]pyrazolo[4,3-f]quinazolin-9-yl]-3-methyl-piperidin-3-ol] |  | ≤ 10 nM |  | 
10 | CCc1c(F)ccc2cc(O)cc(-c3c(C)c4nc(OCC5(CF)COC5)nc(N5CC6CCC(C5)N6)c4c4cn(C)nc34)c12 [Example 247, 4-[9-(3,8-diazabicyclo[3.2.1]octan-3-yl)-7-[[3-(fluoromethyl)oxetan-3-yl]methoxy]-2,5-dimethyl-pyrazolo[4,3-f]quinazolin-4-yl]-5-ethyl-6-fluoro-naphthalen-2-ol] |  | ≤ 10 nM |  | 

Results, then the molecule that gave them:

Row | IC50 (KRAS WT) | IC50 (KRAS G12D) | KRAS^WT NEA (KRAS WT) | KRAS^G12D NEA (KRAS G12D) | Compound
11 | ≤ 10 nM | ≤ 10 nM |  |  | CCc1c(F)ccc2cc(O)cc(-c3c(C)c4nc(OC[C@]5(C)CCCN5)nc(N5CCC[C@@](C)(O)C5)c4c4cn(C)nc34)c12 (mixture of isomers) [Example 211, (3R)-1-[4-(8-ethyl-7-fluoro-3-hydroxy-1-naphthyl)-2,5-dimethyl-7-[[rac-(2S)-2-methylpyrrolidin-2-yl]methoxy]pyrazolo[4,3-f]quinazolin-9-yl]-3-methyl-piperidin-3-ol]
12 | ≤ 10 nM | ≤ 10 nM |  |  | CCc1c(F)ccc2cc(O)cc(-c3cc4nc(OCC5(C)C[C@@H](O)CN5C)nc(N5CCCn6nc(C(=O)N(C)C)cc6C5)c4c4cn(C)nc34)c12 (mixture of isomers) [Example 68, 5-[4-(8-ethyl-7-fluoro-3-hydroxy-1-naphthyl)-2-methyl-7-[rac-(4R)-4-hydroxy-1,2-dimethyl-pyrrolidin-2-yl]methoxy]pyrazolo[4,3-f]quinazolin-9-yl]-N,N-dimethyl-4,6,7,8-tetrahydropyrazolo[1,5-a][1,4]diazepine-2-carboxamide]
13 | ≤ 10 nM | ≤ 10 nM |  |  | CCc1c(F)ccc2cc(O)cc(-c3cc4nc(OC[C@@]56CCCN5C[C@H](F)C6)nc(N5CCC(O)C5)c4c4cn(C)nc34)c12 (mixture of isomers) [Example 117, 1-[4-(8-ethyl-7-fluoro-3-hydroxy-1-naphthyl)-2-methyl-7-[[rac-(2R,8S)-2-fluoro-1,2,3,5,6,7-hexahydropyrrolizin-8-yl]methoxy]pyrazolo[4,3-f]quinazolin-9-yl]pyrrolidin-3-ol]
14 | ≤ 10 nM | ≤ 10 nM |  |  | CCc1c(F)ccc2cc(O)cc(-c3c(F)c4nc(OCC5(C)C[C@@H](O)CN5C)nc(N5CCOCC(C)(O)C5)c4c4cn(C)nc34)c12 (mixture of isomers) [Example 153, 4-[4-(8-ethyl-7-fluoro-3-hydroxy-1-naphthyl)-5-fluoro-2-methyl-7-[[rac-(4R)-4-hydroxy-1,2-dimethyl-pyrrolidin-2-yl]methoxy]pyrazolo[4,3-f]quinazolin-9-yl]-6-methyl-1,4-oxazepan-6-ol]
15 | ≤ 10 nM | ≤ 10 nM |  |  | CCc1c(F)ccc2cc(O)cc(-c3c(C)c4nc(OC[C@@]56CCCN5C[C@H](F)C6)nc(N5CCCn6nc(C(=O)N(C)C)nc6C5)c4c4cn(C)nc34)c12 (racemic) [Example 198, 8-[4-(8-ethyl-7-fluoro-3-hydroxy-1-naphthyl)-2,5-dimethyl-7-[[rac-(2R,8S)-2-fluoro-1,2,3,5,6,7-hexahydropyrrolizin-8-yl]methoxy]pyrazolo[4,3-f]quinazolin-9-yl]-N,N-dimethyl-5,6,7,9-tetrahydro-[1,2,4]triazolo[1,5-a][1,4]diazepine-2-carboxamide]
16 | ≤ 10 nM | ≤ 10 nM |  |  | CCc1c(F)ccc2cc(O)cc(-c3c(F)c4nc(OCC5(CN6C[C@@H]7C[C@H]6CO7)CC5)nc(N5CCOCC(C)(O)C5)c4c4cn(C)nc34)c12 (mixture of isomers) [Example 226, 4-[4-(8-ethyl-7-fluoro-3-hydroxy-1-naphthyl)-5-fluoro-2-methyl-7-[[1-[[rac-(1S,4S)-2-oxa-5-azabicyclo[2.2.1]heptan-5-yl]methyl]cyclopropyl]methoxy]pyrazolo[4,3-f]quinazolin-9-yl]-6-methyl-1,4-oxazepan-6-ol]
17 | 10 to 100 nM | ≤ 10 nM |  |  | C#Cc1c(F)ccc2cc(O)cc(-c3cc4nc(OC[C@@]56CCCN5C[C@H](F)C6)nc(N5CCCNCC5)c4c4cn(C)nc34)c12 (single isomer, unassigned) [Example 36]
18 | ≤ 10 nM | ≤ 10 nM |  |  | CCc1c(F)ccc2cc(O)cc(-c3cc4nc(OCC56CCCN5CCC6)nc(N5CCCOCC5)c4c4cn(C)nc34)c12 [Example 6, 5-ethyl-6-fluoro-4-[7-(1,2,3,5,6,7-hexahydropyrrolizin-8-ylmethoxy)-2-methyl-9-(1,4-oxazepan-4-yl)pyrazolo[4,3-f]quinazolin-4-yl]naphthalen-2-ol]
19 | ≤ 10 nM | ≤ 10 nM |  |  | CCc1c(F)ccc2cc(O)cc(-c3cc4nc(OC[C@@]56CCCN5C[C@H](F)C6)nc(N5CCOCC(C)(O)C5)c4c4cn(C)nc34)c12 (stereo partly drawn) [Example 8, 4-[4-(8-ethyl-7-fluoro-3-hydroxy-1-naphthyl)-2-methyl-7-[[(2R,8S)-2-fluoro-1,2,3,5,6,7-hexahydropyrrolizin-8-yl]methoxy]pyrazolo[4,3-f]quinazolin-9-yl]-6-methyl-1,4-oxazepan-6-ol]
